The source of these data is ChEMBL document CHEMBL1129868 (Bioorg Med Chem Lett, 1997).

The target of one experiment is Adrenergic receptor beta (Rattus norvegicus, UniProt P18090+P10608+P26255). As to the kind of experiment: The compound was tested for its ability to inhibit (-)-[3H]dihydroalprenolol binding to beta-adrenergic receptor sites in rat cortex.
Experiment [1] addresses Beta-1 adrenergic receptor (Cavia porcellus, UniProt B0FL73). Put plainly: Tested for beta-1-adrenergic blocking effect by measuring the ability to inhibit the positive inotropic effect of isoproterenol on the isolated right atrium of guinea pigs. The experiment is classed as functional, tissue-based, Cardiac atrium.
Experiment [2] is described as follows: Ratio of beta-1-adrenergic blocking effect to that of beta 2 -adrenergic blocking effect. The class given is functional.

pIC50: −log10 of the molar value. Where only a bound is given, the exact number is not on record here.

Beta-1 adrenergic receptor, sequence (B0FL73 whole entry): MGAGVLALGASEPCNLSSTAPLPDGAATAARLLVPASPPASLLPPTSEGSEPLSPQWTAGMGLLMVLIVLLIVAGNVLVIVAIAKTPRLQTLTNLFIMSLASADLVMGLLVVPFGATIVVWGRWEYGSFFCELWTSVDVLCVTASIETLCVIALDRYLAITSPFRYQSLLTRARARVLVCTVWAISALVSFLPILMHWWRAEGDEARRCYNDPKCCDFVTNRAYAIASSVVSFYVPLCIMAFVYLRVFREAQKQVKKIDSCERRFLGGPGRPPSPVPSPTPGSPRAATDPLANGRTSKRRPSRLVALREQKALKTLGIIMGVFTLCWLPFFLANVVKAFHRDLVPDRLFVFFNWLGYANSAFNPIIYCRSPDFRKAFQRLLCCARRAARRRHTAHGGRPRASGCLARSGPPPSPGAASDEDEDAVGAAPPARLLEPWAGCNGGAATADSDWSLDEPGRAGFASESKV

For `COCCc1ccc(OC(F)(F)[C@H](O)CNC(C)C)cc1`, on Adrenergic receptor beta, the IC50 was above 100000 nM.
For the molecule `COCCc1ccc(OC(F)(F)[C@@H](O)CNC(C)C)cc1`, in experiment [1], the pIC50 is 5.87. On Adrenergic receptor beta, this molecule yielded an IC50 of 1540 nM. In addition, the Ratio in experiment [2] came out at 0.63.

The term IC50 denotes the concentration needed to halve the response being measured. Broadly, the pIC50 is the IC50 on a negative log10 scale, so that one unit is a factor of ten.
